From patent publication US20200215169A1, “ANTIBACTERIAL METHODS AND RELATED KITS” (THE HENRY M. JACKSON FOUNDATION FOR THE ADVANCEMENT OF …, priority 2017, published 2020)
Entries after “also recorded” stand apart in the source; their conditions may differ.

Tests used:
E. faecalis OG1RF = details: cited from earlier work
[1] = tested on: E. faecalis OG1RF and Δeep biofilms; experiment: Viable cells (CFU) recovered from biofilm biomass after treatment; details: for decrease in viable biofilm cells: three-hour exposure
Procedure: (§1) Cells were scraped up from the wells of the 96-well plate following the post-treatment washing step, as described above. The scraped up cells were serially diluted and plated to assess the number of colony forming units (CFU) recovered per ml (CFU/ml).
The bacteria were then diluted (10^0-10^−7), and plated on Brain Heart Infusion (BHI) plates. The plates were incubated overnight at 37° C.
These solutions were diluted by serial 10-fold dilutions, and then aliquots of each dilution were plated on BHI agar plates to enumerate the number of viable bacteria present in each solution. In addition, the biofilms in the plate were washed, and then two wells of OG1RF biofilms and two wells of Δeep biofilms were removed by scraping manually with a pipette tip and resuspended in potassium phosphate buffered saline. These dislodged biofilm cell solutions were also diluted by serial 10-fold dilutions, and then aliquots of each dilution were plated on BHI agar plates to enumerate the viable bacteria present in each sample. Finally, the remainder of the biofilm wells were allowed to dry for several hours, and then the biomass in each well was stained with safranin. Excess safranin was washed away, and the plates were dried again. Biofilm biomass was quantified by reading the optical density of safranin-stained wells at OD450 nm.

[2] = tested on: E. faecalis OG1RF and Δeep biofilms; experiment: Biofilm biomass quantified by safranin staining, OD450 nm, 96-well polystyrene plates; type: cell-based, Enterococcus faecalis
Procedure: (§2) Biofilms of the two strains were grown overnight in tryptic soy broth without added glucose in the wells of 96-well polystyrene plates at 37° C. The liquid cultures were removed from the plate, and the material remaining in the wells (i.e., the biomass) was washed five times with sterile water.
Both OG1RF and Δeep were streaked on Brain Heart Infusion (BHI) agar plates and incubated at room temperature for two days. Three colonies from each strain were inoculated in BHI broth and incubated overnight at 37° C. 96-well microtiter plate biofilm assays were performed using the overnight cultures diluted in Tryptic Soy Broth (TSB). Biofilm plates were incubated overnight at 37° C. in a moist environment. The microtiter plate was washed with sterile water. […] After incubation, the microtiter plate was washed again with sterile water and left to dry until water was absent in the wells. The plate was stained with safranin, washed again with sterile water, and then read on a plate reader to determine the amount of biofilm in the wells.

[3] = tested on: E. faecalis OG1RF biofilms; details: cited from earlier work
[4] = tested on: E. faecalis OG1RF and Δeep biofilms; experiment: Viable cells in the treatment solution (supernatant) removed from biofilms, dispersal check; type: cell-based, Enterococcus faecalis; details: 5 mg/ml hen egg white lysozyme, 3 h, 37° C., either strain
Procedure: To conduct this experiment, the number of viable cells that were present in the buffer or lysozyme solution that was removed from the biofilms following exposure was measured. If viable cells were dispersed from the biofilm following treatment, then one should be able to enumerate viable cells in the lysozyme solution removed from the treated wells.
In this experiment, biofilms of E. faecalis OG1RF and Δeep were grown in 96-well microtiter plates overnight. The biofilms were washed to remove non-adherent cells.

[5] = tested on: planktonic E. faecalis OG1RF and Δeep cells; experiment: Viability of planktonic logarithmic and stationary phase cells exposed to lysozyme; type: cell-based, Enterococcus faecalis; details: 2.5 mg/ml lysozyme, 6 hours
Procedure: Early logarithmic cultures were prepared by diluting overnight cultures 1:100 in BHI broth. To obtain stationary phase cells, BHI broth was inoculated with 3 individual colonies and cultivated for about 18 hours. […] Cultures to which sterile water was added served as controls. Cultures were incubated at 37° C. for 6 hours.

[6] = tested on: E. faecalis strains DS16, FA2-2, JH2-2, VA1128, V583 and 39-5 biofilms; experiment: Biofilm biomass by safranin staining, laboratory strains and clinical isolates; type: cell-based, Enterococcus faecalis; details: strains DS16, VA1128 and V583, methods of Example 1
Procedure: as §2, with “water. […] Following incubation, the lysozyme or buffer solutions were removed, and the wells were washed again as above.” for “water.”
E. faecalis strains DS16, FA2-2, JH2-2, and 39-5 are strains that have been used for laboratory experiments for many years, and E. faecalis strain V583 is a vancomycin-resistant strain that has become the prototype lab strain for studies of vancomycin-resistant E. faecalis. E. faecalis strain VA1128 is a clinical isolate.

[7] = tested on: E. faecalis strains DS16, FA2-2, JH2-2, VA1128, V583 and 39-5 biofilms; experiment: Viable cells (CFU) recovered from biofilms, laboratory strains and clinical isolates; type: cell-based, Enterococcus faecalis; details: all tested strains, methods of Example 1
Text: as §1

[8] = 128 μg/ml ampicillin in water, 3 h, OG1RF and Δeep

CC1(C)S[C@@H]2[C@H](NC(=O)[C@H](N)c3ccccc3)C(=O)N2[C@H]1C(=O)O [ampicillin, reference compound]
susceptibility in planktonic conditions (E. faecalis OG1RF): susceptible
change in biofilm cell viability [1, 8]: no changes; also recorded: resistant to any effect
change in biofilm biomass [2, 8]: no changes; also recorded: resistant to any effect
ampicillin concentration to which biofilms are resistant [3]: > 128 µg/mL

Human lysozyme: purified, recombinant human lysozyme available for purchase
decrease in viable cells ([1]; OG1RF and Δeep, recombinant human lysozyme): > 99.9%
reduction of viable cells recovered from biofilms ([1]; OG1RF, recombinant human lysozyme): 3.2 log 10 CFU/ml
reduction of viable cells recovered from biofilms ([1]; Δeep, recombinant human lysozyme): 4.0 log 10 CFU/ml
increase in stained biomass ([2]; recombinant human lysozyme versus buffer): approximately 3.5 fold

lysozyme: hen egg white lysozyme (EC 3.2.1.17), enzyme that hydrolyzes beta-1,4-linkages of bacterial cell wall peptidoglycan
viable cells in lysozyme supernatant [4]: no viable cells above the limit of detection
decrease in viable cells ([5]; OG1RF and Δeep, stationary phase): about 1.5 log 10 CFU/ml
decrease in viable cells ([5]; OG1RF, logarithmic growth): no decrease
biofilm biomass after treatment [6]: increased, to some extent
viable cells recovered from biofilm at 6 and 24 hours compared to 3 hours ([1]; 5 mg/ml lysozyme, 37° C.): dropped slightly
drop in viable cells recovered from biofilm ([1]; OG1RF, 5 mg/ml lysozyme, 3 h, difference in means of 3 biological replicates): 2.8 log 10 CFU/ml
decrease in viable biofilm cells ([1]; OG1RF, 5 mg/ml lysozyme): 99.8%
viability of biofilm cells versus untreated or buffer (in words) ([1]; lysozyme-treated OG1RF and Δeep biofilms): fewer living cells than the untreated strains; also recorded: displayed killing; also recorded: decreased the number of viable biofilm cells
decrease in viable biofilm cells ([1]; Δeep, 5 mg/ml lysozyme): 99.9%
viable cells recovered from biofilms [7]: reduced the number of viable cells
increase in stained biomass among 0.156, 1.25 and 5 mg/ml ([2]; 1.25 mg/ml lysozyme): largest increase
biofilm biomass (safranin staining) versus buffer ([2]; 5 mg/ml hen egg white lysozyme, 3 h, 37° C., OG1RF and Δeep): increased biofilm biomass of equal magnitude for both strains; also recorded: increased equally for both strains; also recorded: greater than the staining in untreated wells
stained biomass at 6 hours compared to 3 hours ([2]; 5 mg/ml lysozyme, 37° C.): increased slightly
